Test results reported in patent publication US12318373B2, “Methods of treating gastrointestinal stromal tumors” (Deciphera Pharmaceuticals, LLC, priority 2019, dated 2025).

Tested on: GIST patients
Test: Example 3: safety, TEAEs in GIST patients at ≥100 mg daily
Format: in vivo, human
Protocol: Grade 3 or 4 treatment-emergent adverse events (TEAEs) in >5% of patients were lipase increased (18%; n=33), anemia (11%; n=20), hypertension (7%; n=13) and abdominal pain (6%; n=11). 13% of patients (n=24) experienced TEAEs leading to study treatment discontinuation, 17% of patients (n=31) experienced TEAEs leading to dose reduction and 49% of patients (n=88) had TEAEs leading to study drug interruption. Table 3 lists TEAEs>10% for GIST patients treated with ≥100 mg of ripretinib daily.

[1] = 1st column pair, head not printed (likely Grade 1/2)
[2] = 3rd column pair, head not printed (likely all grades)

Compound: CCn1c(=O)c(-c2cc(NC(=O)Nc3ccccc3)c(F)cc2Br)cc2cnc(NC)cc21 [ripretinib]
- Patients with TEAEs leading to dose reduction, %: 17%
- Patients with TEAEs leading to dose reduction, number: 31
- Patients with TEAEs leading to study drug interruption, %: 49%
- Patients with TEAEs leading to study drug interruption, number: 88
- Patients with TEAEs leading to study treatment discontinuation, %: 13%
- Patients with TEAEs leading to study treatment discontinuation, number: 24
- Abdominal pain: patients, % [1]: (18%)
- Abdominal pain: patients, number [1]: 33
- Actinic keratosis: patients, % [1]: (14%)
- Actinic keratosis: patients, number [1]: 25
- Alopecia: patients, % [1]: (57%)
- Alopecia: patients, number [1]: 102
- Amylase increased: patients, % [1]: (11%)
- Amylase increased: patients, number [1]: 19
- Anemia: patients, % [1]: (10%)
- Anemia: patients, number [1]: 18
- Arthralgia: patients, % [1]: (22%)
- Arthralgia: patients, number [1]: 40
- Back Pain: patients, % [1]: (17%)
- Back Pain: patients, number [1]: 30
- Blood bilirubin increase: patients, % [1]: (9%)
- Blood bilirubin increase: patients, number [1]: 16
- Blood creatine phosphokinase increased: patients, % [1]: (7%)
- Blood creatine phosphokinase increased: patients, number [1]: 13
- Constipation: patients, % [1]: (37%)
- Constipation: patients, number [1]: 67
- Cough: patients, % [1]: (21%)
- Cough: patients, number [1]: 37
- Decreased appetite: patients, % [1]: (34%)
- Decreased appetite: patients, number [1]: 60
- Diarrhea: patients, % [1]: (28%)
- Diarrhea: patients, number [1]: 50
- Dizziness: patients, % [1]: (16%)
- Dizziness: patients, number [1]: 29
- Dry skin: patients, % [1]: (21%)
- Dry skin: patients, number [1]: 37
- Dysgeusia: patients, % [1]: (11%)
- Dysgeusia: patients, number [1]: 20
- Dyspnea: patients, % [1]: (18%)
- Dyspnea: patients, number [1]: 32
- Fatigue: patients, % [1]: (53%)
- Fatigue: patients, number [1]: 94
- Headache: patients, % [1]: (18%)
- Headache: patients, number [1]: 33
- Hypertension: patients, % [1]: (14%)
- Hypertension: patients, number [1]: 25
- Hypokalaemia: patients, % [1]: (12%)
- Hypokalaemia: patients, number [1]: 21
- Hypomagnesaemia: patients, % [1]: (10%)
- Hypomagnesaemia: patients, number [1]: 18
- Hypophosphataemia: patients, % [1]: (10%)
- Hypophosphataemia: patients, number [1]: 17
- Insomnia: patients, % [1]: (12%)
- Insomnia: patients, number [1]: 21
- Lipase increased: patients, % [1]: (10%)
- Lipase increased: patients, number [1]: 18
- Muscle spasms: patients, % [1]: (26%)
- Muscle spasms: patients, number [1]: 47
- Myalgia: patients, % [1]: (44%)
- Myalgia: patients, number [1]: 79
- Nausea: patients, % [1]: (43%)
- Nausea: patients, number [1]: 77
- Pain in extremity: patients, % [1]: (10%)
- Pain in extremity: patients, number [1]: 18
- Palmar-plantar erythrodysaesthesia syndrome: patients, % [1]: (40%)
- Palmar-plantar erythrodysaesthesia syndrome: patients, number [1]: 71
- Pruritus: patients, % [1]: (10%)
- Pruritus: patients, number [1]: 18
- Rash maculo-papular: patients, % [1]: (10%)
- Rash maculo-papular: patients, number [1]: 18
- Rash: patients, % [1]: (15%)
- Rash: patients, number [1]: 27
- Seborrhoeic keratosis: patients, % [1]: (12%)
- Seborrhoeic keratosis: patients, number [1]: 21
- Skin papilloma: patients, % [1]: (10%)
- Skin papilloma: patients, number [1]: 17
- Upper respiratory tract infection: patients, % [1]: (10%)
- Upper respiratory tract infection: patients, number [1]: 18
- Urinary tract infection: patients, % [1]: (9%)
- Urinary tract infection: patients, number [1]: 16
- Vision blurred: patients, % [1]: (10%)
- Vision blurred: patients, number [1]: 17
- Vomiting: patients, % [1]: (24%)
- Vomiting: patients, number [1]: 42
- Weight decreased: patients, % [1]: (29%)
- Weight decreased: patients, number [1]: 51
- Abdominal pain: patients, % [2]: (25%)
- Abdominal pain: patients, number [2]: 44
- Actinic keratosis: patients, % [2]: (14%)
- Actinic keratosis: patients, number [2]: 25
- Alopecia: patients, % [2]: (57%)
- Alopecia: patients, number [2]: 102
- Amylase increased: patients, % [2]: (12%)
- Amylase increased: patients, number [2]: 21
- Anemia: patients, % [2]: (21%)
- Anemia: patients, number [2]: 38
- Arthralgia: patients, % [2]: (22%)
- Arthralgia: patients, number [2]: 40
- Back Pain: patients, % [2]: (18%)
- Back Pain: patients, number [2]: 32
- Blood bilirubin increase: patients, % [2]: (12%)
- Blood bilirubin increase: patients, number [2]: 21
- Blood creatine phosphokinase increased: patients, % [2]: (10%)
- Blood creatine phosphokinase increased: patients, number [2]: 18
- Constipation: patients, % [2]: (37%)
- Constipation: patients, number [2]: 67
- Cough: patients, % [2]: (21%)
- Cough: patients, number [2]: 37
- Decreased appetite: patients, % [2]: (35%)
- Decreased appetite: patients, number [2]: 62
- Diarrhea: patients, % [2]: (30%)
- Diarrhea: patients, number [2]: 53
- Dizziness: patients, % [2]: (16%)
- Dizziness: patients, number [2]: 29
- Dry skin: patients, % [2]: (21%)
- Dry skin: patients, number [2]: 37
- Dysgeusia: patients, % [2]: (11%)
- Dysgeusia: patients, number [2]: 20
- Dyspnea: patients, % [2]: (20%)
- Dyspnea: patients, number [2]: 36
- Fatigue: patients, % [2]: (55%)
- Fatigue: patients, number [2]: 98
- Headache: patients, % [2]: (19%)
- Headache: patients, number [2]: 34
- Hypertension: patients, % [2]: (21%)
- Hypertension: patients, number [2]: 38
- Hypokalaemia: patients, % [2]: (15%)
- Hypokalaemia: patients, number [2]: 26
- Hypomagnesaemia: patients, % [2]: (10%)
- Hypomagnesaemia: patients, number [2]: 18
- Hypophosphataemia: patients, % [2]: (14%)
- Hypophosphataemia: patients, number [2]: 25
- Insomnia: patients, % [2]: (12%)
- Insomnia: patients, number [2]: 21
- Lipase increased: patients, % [2]: (29%)
- Lipase increased: patients, number [2]: 51
- Muscle spasms: patients, % [2]: (26%)
- Muscle spasms: patients, number [2]: 47
- Myalgia: patients, % [2]: (44%)
- Myalgia: patients, number [2]: 79
- Nausea: patients, % [2]: (44%)
- Nausea: patients, number [2]: 78
- Pain in extremity: patients, % [2]: (11%)
- Pain in extremity: patients, number [2]: 19
- Palmar-plantar erythrodysaesthesia syndrome: patients, % [2]: (40%)
- Palmar-plantar erythrodysaesthesia syndrome: patients, number [2]: 72
- Pruritus: patients, % [2]: (10%)
- Pruritus: patients, number [2]: 18
- Rash maculo-papular: patients, % [2]: (10%)
- Rash maculo-papular: patients, number [2]: 18
- Rash: patients, % [2]: (15%)
- Rash: patients, number [2]: 27
- Seborrhoeic keratosis: patients, % [2]: (12%)
- Seborrhoeic keratosis: patients, number [2]: 21
- Skin papilloma: patients, % [2]: (10%)
- Skin papilloma: patients, number [2]: 17
- Upper respiratory tract infection: patients, % [2]: (10%)
- Upper respiratory tract infection: patients, number [2]: 18
- Urinary tract infection: patients, % [2]: (11%)
- Urinary tract infection: patients, number [2]: 20
- Vision blurred: patients, % [2]: (10%)
- Vision blurred: patients, number [2]: 17
- Vomiting: patients, % [2]: (25%)
- Vomiting: patients, number [2]: 44
- Weight decreased: patients, % [2]: (29%)
- Weight decreased: patients, number [2]: 52
- Tolerability (GIST patients): generally well tolerated
- Abdominal pain: patients, number (head not printed (Grade 3/4)): 11
- Actinic keratosis: patients, % (head not printed (Grade 3/4)): (0%)
- Actinic keratosis: patients, number (head not printed (Grade 3/4)): 0
- Alopecia: patients, % (head not printed (Grade 3/4)): (0%)
- Alopecia: patients, number (head not printed (Grade 3/4)): 0
- Amylase increased: patients, % (head not printed (Grade 3/4)): (1%)
- Amylase increased: patients, number (head not printed (Grade 3/4)): 2
- Anemia: patients, number (head not printed (Grade 3/4)): 20
- Arthralgia: patients, % (head not printed (Grade 3/4)): (0%)
- Arthralgia: patients, number (head not printed (Grade 3/4)): 0
- Back Pain: patients, % (head not printed (Grade 3/4)): (1%)
- Back Pain: patients, number (head not printed (Grade 3/4)): 2
- Blood bilirubin increase: patients, % (head not printed (Grade 3/4)): (3%)
- Blood bilirubin increase: patients, number (head not printed (Grade 3/4)): 5
- Blood creatine phosphokinase increased: patients, % (head not printed (Grade 3/4)): (3%)
- Blood creatine phosphokinase increased: patients, number (head not printed (Grade 3/4)): 5
- Constipation: patients, % (head not printed (Grade 3/4)): (0%)
- Constipation: patients, number (head not printed (Grade 3/4)): 0
- Cough: patients, % (head not printed (Grade 3/4)): (0%)
- Cough: patients, number (head not printed (Grade 3/4)): 0
- Decreased appetite: patients, % (head not printed (Grade 3/4)): (1%)
- Decreased appetite: patients, number (head not printed (Grade 3/4)): 2
- Diarrhea: patients, % (head not printed (Grade 3/4)): (2%)
- Diarrhea: patients, number (head not printed (Grade 3/4)): 3
- Dizziness: patients, % (head not printed (Grade 3/4)): (0%)
- Dizziness: patients, number (head not printed (Grade 3/4)): 0
- Dry skin: patients, % (head not printed (Grade 3/4)): (0%)
- Dry skin: patients, number (head not printed (Grade 3/4)): 0
- Dysgeusia: patients, % (head not printed (Grade 3/4)): (0%)
- Dysgeusia: patients, number (head not printed (Grade 3/4)): 0
- Dyspnea: patients, % (head not printed (Grade 3/4)): (2%)
- Dyspnea: patients, number (head not printed (Grade 3/4)): 4
- Fatigue: patients, % (head not printed (Grade 3/4)): (2%)
- Fatigue: patients, number (head not printed (Grade 3/4)): 4
- Headache: patients, % (head not printed (Grade 3/4)): (1%)
- Headache: patients, number (head not printed (Grade 3/4)): 1
- Hypertension: patients, number (head not printed (Grade 3/4)): 13
- Hypokalaemia: patients, % (head not printed (Grade 3/4)): (3%)
- Hypokalaemia: patients, number (head not printed (Grade 3/4)): 5
- Hypomagnesaemia: patients, % (head not printed (Grade 3/4)): (0%)
- Hypomagnesaemia: patients, number (head not printed (Grade 3/4)): 0
- Hypophosphataemia: patients, % (head not printed (Grade 3/4)): (5%)
- Hypophosphataemia: patients, number (head not printed (Grade 3/4)): 8
- Insomnia: patients, % (head not printed (Grade 3/4)): (0%)
- Insomnia: patients, number (head not printed (Grade 3/4)): 0
- Lipase increased: patients, number (head not printed (Grade 3/4)): 33
- Muscle spasms: patients, % (head not printed (Grade 3/4)): (0%)
- Muscle spasms: patients, number (head not printed (Grade 3/4)): 0
- Myalgia: patients, % (head not printed (Grade 3/4)): (0%)
- Myalgia: patients, number (head not printed (Grade 3/4)): 0
- Nausea: patients, % (head not printed (Grade 3/4)): (1%)
- Nausea: patients, number (head not printed (Grade 3/4)): 1
- Pain in extremity: patients, % (head not printed (Grade 3/4)): (1%)
- Pain in extremity: patients, number (head not printed (Grade 3/4)): 1
- Palmar-plantar erythrodysaesthesia syndrome: patients, % (head not printed (Grade 3/4)): (1%)
- Palmar-plantar erythrodysaesthesia syndrome: patients, number (head not printed (Grade 3/4)): 1
- Pruritus: patients, % (head not printed (Grade 3/4)): (0%)
- Pruritus: patients, number (head not printed (Grade 3/4)): 0
- Rash maculo-papular: patients, % (head not printed (Grade 3/4)): (0%)
- Rash maculo-papular: patients, number (head not printed (Grade 3/4)): 0
- Rash: patients, % (head not printed (Grade 3/4)): (0%)
- Rash: patients, number (head not printed (Grade 3/4)): 0
- Seborrhoeic keratosis: patients, % (head not printed (Grade 3/4)): (0%)
- Seborrhoeic keratosis: patients, number (head not printed (Grade 3/4)): 0
- Skin papilloma: patients, % (head not printed (Grade 3/4)): (0%)
- Skin papilloma: patients, number (head not printed (Grade 3/4)): 0
- Upper respiratory tract infection: patients, % (head not printed (Grade 3/4)): (0%)
- Upper respiratory tract infection: patients, number (head not printed (Grade 3/4)): 0
- Urinary tract infection: patients, % (head not printed (Grade 3/4)): (2%)
- Urinary tract infection: patients, number (head not printed (Grade 3/4)): 4
- Vision blurred: patients, % (head not printed (Grade 3/4)): (0%)
- Vision blurred: patients, number (head not printed (Grade 3/4)): 0
- Vomiting: patients, % (head not printed (Grade 3/4)): (1%)
- Vomiting: patients, number (head not printed (Grade 3/4)): 2
- Weight decreased: patients, % (head not printed (Grade 3/4)): (1%)
- Weight decreased: patients, number (head not printed (Grade 3/4)): 1
